In PubChem BioAssay (NCI):
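Test compounds were applied to cells in 96-well plates for 48 hours at 5 doses. TGI is the concentration that stops growth completely.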

Legend:
Assay in all cases: growth of human tumour cells (NCI), 48 h
[1] = tested on: CAKI-1 renal
[2] = tested on: DLD-1 colon
[3] = tested on: DMS 114 small cell lung
[4] = tested on: DMS 273 small cell lung
[5] = tested on: HCT-116 colon
[6] = tested on: M19-MEL melanoma
[7] = tested on: MOLT-4 leukemia
[8] = tested on: NCI-H522 lung
[9] = tested on: SK-MEL-2 melanoma
[10] = tested on: SK-MEL-28 melanoma
[11] = tested on: SW-620 colon

Compound | TGI [1] | TGI [2] | TGI [3] | TGI [4] | TGI [5] | TGI [6] | TGI [7] | TGI [8] | TGI [9] | TGI [10] | TGI [11]
CC(=O)Nc1cc(N(CCOS(C)(=O)=O)CCOS(C)(=O)=O)ccc1N=O | > 100 µM | > 100 µM | > 100 µM | > 100 µM | > 100 µM | > 100 µM | > 100 µM | > 100 µM | > 100 µM | > 100 µM | > 100 µM
NS(=O)(=O)c1ccc(NC2=CC(=O)C(=O)c3ccccc32)cc1 | > 100 µM | > 100 µM | > 100 µM | > 100 µM | > 100 µM | > 100 µM | > 100 µM | > 100 µM | > 100 µM | > 100 µM | > 100 µM
COc1c(C(=O)c2ccc([N+](=O)[O-])cc2)cc(C(C)(C)C)cc1C(C)(C)C | > 100 µM | > 100 µM | 73.1 µM | > 100 µM | 62.9 µM | > 100 µM | 39.9 µM | 56.9 µM | 30.1 µM | 72.8 µM | > 100 µM
COC(=O)/C=C(\C(=O)OC)c1c2c3c(cc(OC)c(OC)c3c3ccccc13)CCN2C | – | > 100 µM | 80.7 µM | 50.9 µM | > 100 µM | > 100 µM | 89.5 µM | 74 µM | > 100 µM | > 100 µM | > 100 µM
CC1CC(=O)Nc2ccccc2N1C(=O)CN1CCC(CCCCN(C)C)CC1 (stereo unspecified) | > 100 µM | > 100 µM | > 100 µM | > 100 µM | > 100 µM | > 100 µM | > 100 µM | > 100 µM | > 100 µM | > 100 µM | > 100 µM
O=C(c1ccccc1)[C@H]1Nc2ccc(Cl)cc2C2c3ccccc3CC21 (stereo partly specified) | > 100 µM | > 100 µM | > 100 µM | > 100 µM | > 100 µM | > 100 µM | > 100 µM | > 100 µM | > 100 µM | 97 µM | > 100 µM
CNCc1cc(OC)ccc1-c1ccc(OC)c(OC)c1OC | > 100 µM | > 100 µM | > 100 µM | > 100 µM | > 100 µM | > 100 µM | > 100 µM | > 100 µM | > 100 µM | > 100 µM | > 100 µM
CC1=NOC(=O)/C1=C/c1cccc2ccccc12 | > 100 µM | > 100 µM | > 100 µM | > 100 µM | > 100 µM | > 100 µM | > 100 µM | > 100 µM | > 100 µM | > 100 µM | > 100 µM
O=C1c2ccccc2C(=O)N1CCN(CCN1C(=O)c2ccccc2C1=O)Cn1cccn1 | > 100 µM | > 100 µM | 38.3 µM | > 100 µM | 31.6 µM | > 100 µM | > 100 µM | > 100 µM | > 100 µM | > 100 µM | > 100 µM
OCC(O)C(O)C(O)c1nn(-c2ccc(Cl)cc2)c2nc3cc(Cl)c(Cl)cc3nc12 (stereo unspecified) | > 100 µM | > 100 µM | > 100 µM | > 100 µM | > 100 µM | > 100 µM | > 100 µM | > 100 µM | > 100 µM | > 100 µM | > 100 µM
O=C(O)C[C@H]1CCCCC12CCOC2=O (stereo partly specified) | > 100 µM | > 100 µM | > 100 µM | > 100 µM | > 100 µM | > 100 µM | > 100 µM | > 100 µM | > 100 µM | > 100 µM | > 100 µM
NNC(=O)CNC(=O)c1ccc(Cl)cc1Cl | > 100 µM | > 100 µM | > 100 µM | > 100 µM | > 100 µM | > 100 µM | > 100 µM | > 100 µM | – | > 100 µM | 33.3 µM
N#Cc1c2c(c(N=P(c3ccccc3)(c3ccccc3)c3ccccc3)n3c1nc1ccccc13)CCCC2 | > 100 µM | > 100 µM | 59.4 µM | 56.1 µM | > 100 µM | 67.8 µM | 64.2 µM | 41.8 µM | 70.4 µM | > 100 µM | > 100 µM
CC1SC2=NC3=C(c4ccccc4C3=O)C(c3ccc(Cl)cc3)N2C1=O (stereo unspecified) | > 100 µM | > 100 µM | > 100 µM | > 100 µM | – | > 100 µM | > 100 µM | 87.8 µM | > 100 µM | > 100 µM | > 100 µM
